This is an account of results in ChEMBL document CHEMBL4477179, “Wewakazole B, a Cytotoxic Cyanobactin from the Cyanobacterium Moorea producens Collected in the Red Sea” (J Nat Prod, 2016).

The nature of test [1]: Metal chelating activity assessed as Fe3+ complex formation at 89 uM measured after 45 mins by CAS assay. It counts as functional.
Another test relates to MCF7. Nature of the test: Cytotoxicity against human MCF7 cells measured after 72 hrs by MTT assay. The class given is functional, cell-based. The settings on record: MCF7, 72 h. Background: Formazan colour is commonly taken as a measure of viable cells.
In the next test the test system is NCI-H460. The test is described as follows: Cytotoxicity against human NCI-H460 cells measured after 72 hrs by MTT assay. The class given is functional, cell-based. The settings on record: NCI-H460, 72 h.
The nature of test [2]: Metal chelating activity assessed as Fe3+ complex formation measured after 45 mins by CAS assay. It counts as functional.

Molecules are shown by their SMILES. Calls of active or inactive are those of the source. No cut-off for these calls is given here. *1 amine or outer side, *2 acyl side, *3 side chain or, on linkers, in order; H or OH if unused. Where a SMILES comes first, the peptide text is derived from it. [ ]: non-standard residue; d: D form. X1 = Cc1oc([C@H](Cc2ccccc2)N[*:1])nc1C(=O)[*:2]; X3 = CC[C@H](C)[C@H](N[*:1])c1nc(C(=O)[*:2])co1; X2 = Cc1oc([C@H](C)N[*:1])nc1C(=O)[*:2]

A word on the IC50: it is the concentration that gives 50% inhibition.

Turning to `CC[C@H](C)[C@@H]1NC(=O)[C@@H]2CCCN2C(=O)[C@H](Cc2ccccc2)NC(=O)c2nc(oc2C)[C@H](C)NC(=O)c2nc(oc2C)[C@H](Cc2ccccc2)NC(=O)CNC(=O)[C@@H]2CCCN2C(=O)[C@@H]2CCCN2C(=O)[C@H](C)NC(=O)c2coc1n2` (cyclo(APPG[X1][X2]FP[X3])), the outcome in test [1] was inactive. Besides, the IC50 in the test on MCF7 is 0.58 µM; in the test with NCI-H460, 1 µM.

For `CC(=O)N(O)CCCCCNC(=O)CCC(=O)N(O)CCCCCNC(=O)CCC(=O)N(O)CCCCCN` [DEFEROXAMINE], in test [2], the IC50 worked out at 5.1 µM.
